Square brackets hold non-standard residues; d marks the D form. Peptide text beside a SMILES is read from it.
Target: T1, ETA receptor (ETAR) (Homo sapiens, UniProt P25101)
T1 construct: gene EDNRA
T1 sequence (P25101 21-427): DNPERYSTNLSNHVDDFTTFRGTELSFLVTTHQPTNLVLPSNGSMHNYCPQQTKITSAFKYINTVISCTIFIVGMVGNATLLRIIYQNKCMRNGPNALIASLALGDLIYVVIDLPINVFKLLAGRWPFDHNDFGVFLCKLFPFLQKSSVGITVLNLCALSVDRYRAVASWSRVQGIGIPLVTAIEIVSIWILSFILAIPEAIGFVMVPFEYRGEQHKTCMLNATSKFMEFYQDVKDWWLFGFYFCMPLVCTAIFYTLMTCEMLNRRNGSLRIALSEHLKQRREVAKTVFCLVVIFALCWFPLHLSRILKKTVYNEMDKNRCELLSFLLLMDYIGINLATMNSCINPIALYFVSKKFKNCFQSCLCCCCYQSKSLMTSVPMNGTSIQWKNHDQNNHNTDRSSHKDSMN
Experiment: […]ET-1 radioligand displacement, recombinant human ETA in CHO-K1 cells
Assay type: cell-based
Conditions: read-out: ETAh 10^-5 M ^a

Row | SMILES | Ki [nM]
1 | COc1ccc(CN2C(=O)C[C@H](c3ccc4c(c3)OCO4)[C@H]2C(=O)O)cc1 (racemic) [31h, (±)-trans 3-(1,3-Benzodioxol-5-yl)-1-[(4-methoxyphenyl)methyl]-5-oxo-proline] | 3300 ± 1100
2 | CC(C)C[C@@H]1NC(=O)[C@@H](C(C)C)NC(=O)[C@@H]2CCCN2C(=O)[C@@H](CC(=O)O)NC(=O)[C@@H](Cc2c[nH]c3ccccc23)NC1=O [BQ-123] (cyclo(L[dW][dD]P[dV])) | 5.4 ± 0.8

Reference: article PMC7221592, “Synthesis and Molecular Modelling Studies of New 1,3-Diaryl-5-Oxo-Proline Derivatives as Endothelin Receptor Ligands” (Molecules, 2020)
